Measurements as given in patent publication US8357379B2, “High concentration baclofen preparations” (Board of Regents, The University of Texas System, priority 2004, dated 2013).
Marks after values point to notes of the source that are not given here.

Legend:
[1] = Physical stability evaluation (visual inspection, Tyndall beam, turbidity, particle counting) of stored baclofen solutions; assay type: physicochemical; settings: for Physical Stability (yes/no) / visual inspection at approximately 16 months: heat and sonication; for physical stability at twelve months: 12 months
[2] = Stability-indicating HPLC analysis of baclofen concentration / chemical stability; assay type: physicochemical; settings: for Chemical Stability (% Remaining): room temperature
Description: The test solutions in vials and syringes are thoroughly mixed prior to sampling. A 1-mL sample of each test solution from three test syringes and three test vials is collected and chemically analyzed. […] Triplicate HPLC determinations are performed at each time point if needed to determine the maximum stability of baclofen. The contents of the remaining containers are visually inspected at each assay time point and 6-mL samples are collected and fully evaluated for physical stability as indicated under Physical Stability Evaluation above after 1, 3, 7, 14, 21, 30 and 60 days.
HPLC Analysis to Confirm Baclofen Concentration. A stability-indicating HPLC analytical method adapted from published methods was used to determine the concentration of the baclofen samples evaluated in this testing (Sitaram et al., 1997; Gupta et al., 1998; Johnson C E, et al., 1993; Allen L V, et al., 1996. This method was used to document that at the higher concentrations the entire amount of baclofen had dissolved, and the solutions were near the target concentrations. All tested sample solutions were filtered through 0.22-micron filters to remove remaining undissolved drug, if any, prior to analysis. The HPLC analytical method used is cited in Tables 1 and 2. […] Initial baclofen concentrations for the nominally 4, 5, 6, and 8 mg/mL test solutions were within 93 to 104% of the target concentrations.
The liquid chromatograph is a Waters LC Module-1 Plus having a multisolvent pump, variable wavelength UV detector, and autosampler in one unit. The system is also controlled and integrated by a personal computer running chromatography management software.

[3] = 20° C.; cited from earlier work
[4] = Physical stability evaluation (visual inspection, Tyndall beam, turbidity, particle counting) of stored baclofen solutions; assay type: physicochemical; settings: for time remained clear and free of unacceptable microparticulates: room temperature or 37° C.
Description: Methods of Sample Preparation. All manipulations are conducted in a Class 100 environment in a biological safety cabinet. Each test solution is prepared as a pooled sample and then subdivided by (1) drawing 20 mL of the solution into 30-mL Becton-Dickinson syringes having Braun Luer lock “Red Cap” syringe tip seals and (2) sealing the Luer tip with a Red Cap Luer tip seal and (3) filling 20 mL of the test solution into 30-mL sterile empty glass vials. Separate sample syringes and sample vials are prepared for each drug concentration at each storage temperature. Separate syringes and vials are prepared for analysis of the drug content. Further syringes and vials are used to evaluate the physical stability of the solutions.
Methods of Sampling and Analysis. Each pooled solution is analyzed and evaluated immediately after preparation. This serves as the initial time point evaluation for the test solution. The solution is then packaged into the syringes and vials as noted under Sample Preparation.
The test solutions in vials and syringes are thoroughly mixed prior to sampling. A 1-mL sample of each test solution from three test syringes and three test vials is collected and chemically analyzed. The sample aliquots are removed from each container after 1, 3, 7, 14, 21, 30 and 60 days of storage at 4° C., 23° C., and 37° C. Triplicate HPLC determinations are performed at each time point if needed to determine the maximum stability of baclofen. The contents of the remaining containers are visually inspected at each assay time point and 6-mL samples are collected and fully evaluated for physical stability as indicated under Physical Stability Evaluation above after 1, 3, 7, 14, 21, 30 and 60 days.
After complete dissolution of the samples had occurred, the solutions were allowed to cool to room temperature and several separate aliquots of each sample were filtered through 0.22-micron sterilizing filters into sterile empty vials. Vials containing samples of each solution were stored under one of three test conditions: vials were stored at room temperature or under refrigeration (to simulate normal storage conditions), or at 37° C. (to simulate “in use” conditions in an implanted pump).
Physical Stability Evaluation. The samples are also evaluated for changes in turbidity and particulate formation. In addition to visual inspection in normal diffuse fluorescent room light and using a high-intensity monodirectional light source (Tyndall beam) against a dark background, turbidity is measured using a Hach Company model 2100AN color-correcting turbidimeter, and particle sizing/counting is performed using a light-obscuration particle sizer and counter (HIAC-Royco Model 9703 particle sizer/counter).

[5] = aqueous solution, room temperature, neutral pH (pH 6 to 7); calculated (Ahuja, 1985); cited from earlier work
[6] = cited from earlier work

Compound: NCC(CC(=O)O)c1ccc(Cl)cc1 (centres unmarked) [Baclofen, 4-amino-3-(p-chlorophenyl) butyric acid]
- Physical Stability (yes/no) ([1]; 3 mg/ml, room temperature, test period 24 months): yes
- Physical Stability (yes/no) ([1]; 3.5 mg/ml, room temperature, test period 24 months): yes
- time remained in solution ([1]; 4 mg/mL, Examples 1 and 2, refrigerated at 4° C. (maximum duration tested)): at least 60 days
- time remained in solution, clear and free of visible particulates and microparticulate precipitation ([1]; 4 mg/mL, Examples 1 and 2, room temperature of 23° C.): at least one
- time stayed in solution, clear and free of visible particulates and unacceptable microparticulates ([1]; 4 mg/mL, heat and sonication (Example 1) or heat and high speed stirring (Example 2), room temperature): over 12 months
- Physical Stability (yes/no) ([1]; 4 mg/ml, room temperature, test period 12 months): yes
- Physical Stability (yes/no) ([1]; 4 mg/ml, room temperature, test period 24 months): yes
- time after which a precipitate developed ([1]; 5 mg/mL, refrigeration): 14 days
- Physical Stability (yes/no) ([1]; 5 mg/ml, room temperature, test period 12 months): yes
- time remained clear and free of unacceptable microparticulates ([1]; 6 mg/mL, all four methods (Examples 1-4), room temperature or 37° C.): at least 60 days
- physical stability at twelve months ([1]; 6.0 mg/mL, heat and sonication (Example 1), room temperature): no visible particulates to the unaided eye, but did contain trace amounts of solid material
- visual inspection at approximately 16 months ([1]; 6.0 mg/mL, room temperature): no change in its condition
- Physical Stability (yes/no) ([1]; 6 mg/ml, room temperature, test period 12 months, no visible particulates to the unaided eye, trace microparticulates in a few vials): yes^b
- time remained in solution ([1]; 8.0 mg/mL, heat and sonication (Example 1), room temperature): at least 30 days
- time remained clear and free of unacceptable microparticulates before trace particulate precipitation ([1]; 8 mg/mL, heating and agitation (Examples 1 and 2), room temperature or 37° C.): 14 days
- physical stability at 24 months ([1]; 3.0, 3.5 and 4.0 mg/mL, heat and sonication (Example 1), room temperature, 24 months, four methods of Example 11): physically stable by all four methods
- physical stability at twelve months ([1]; 4.0 and 5.0 mg/mL, heat and sonication (Example 1), room temperature): remained clear and no particulates were detected
- visual inspection at approximately 16 months ([1]; 4.0 and 5.0 mg/mL, room temperature): no change in the solutions
- Chemical Stability (% Remaining) ([2]; 3 mg/ml, 24 months, calculated based on concentrations measured at six months): 101.7 ± 1.0^a % Remaining
- Chemical Stability (% Remaining) ([2]; 3.5 mg/ml, 24 months, calculated based on concentrations measured at six months): 100.0 ± 0.4^a % Remaining
- loss of drug during storage ([2]; 4 mg/mL, Examples 1 and 2, at least one year at 23° C.): no loss of drug
- Chemical Stability (% Remaining) ([2]; 4 mg/ml, 12 months): 99.9 ± 0.5 % Remaining
- Chemical Stability (% Remaining) ([2]; 4 mg/ml, 24 months, calculated based on concentrations measured at six months): 99.5 ± 1.2^a % Remaining
- Chemical Stability (% Remaining) ([2]; 5 mg/ml, 12 months): 100.6 ± 0.5 % Remaining
- Chemical Stability (% Remaining) ([2]; 6 mg/ml, 12 months): 102.9 ± 1.0 % Remaining
- initial baclofen concentration relative to target concentration ([2]; nominally 4, 5, 6, and 8 mg/mL test solutions, filtered 0.22-micron, HPLC): 93 to 104%
- pKa1 [3]: 3.8±0.1
- pKa2 [3]: 9.62±0.1
- time stayed in solution, clear and free of visible particulates and unacceptable microparticulates ([4]; 4 mg/mL, Examples 1 and 2, 37° C. (maximum duration tested)): at least one
- time remained clear and free of unacceptable microparticulates ([4]; 4 mg/mL, prepared by pH adjustment (Examples 3 and 4)): at least 60 days
- time remained clear and free of unacceptable microparticulates ([4]; 5 mg/mL, all four methods (Examples 1-4)): at least 60 days
- time after which a precipitate developed ([4]; 6 mg/mL, refrigeration): 7 days
- time remained in solution clear and free of unacceptable microparticulates ([4]; 8 mg/mL, acidification and back titration to pH 5 (Example 3), room temperature): at least 30 days
- time remains in solution clear and free of unacceptable microparticulates ([4]; 8 mg/mL, alkalinization and back titration (Example 4), room temperature): at least 30 days
- time before there is 10% decomposition of the dissolved baclofen [5]: 10 years
- concentration obtained by dissolving in acid ([6]; aqueous 0.1N HCl (Ahuja 1985)): greater than 20 mg/ml
- concentration obtained by dissolving in base ([6]; aqueous 0.1N NaOH (Ahuja 1985)): greater than 20 mg/ml
- solubility in chloroform ([6]; chloroform): insoluble
- solubility in methanol ([6]; methanol): very slightly soluble
- upper limit on room temperature aqueous solubility ([6]; room temperature, equilibrium reached over weeks or months (Ahuja, 1985)): 4300 µg/mL
- solubility in water ([6]; water): slightly soluble
